From patent US12269859B2, “Synthetic immune receptors and methods of use thereof” (Angeles Therapeutics, Inc., priority 2016, dated 2025)
Entries after “also recorded” stand apart in the source; their conditions may differ.

Assays:
RAJI cells [1] = assay: RAJI xenograft model of lymphoma in NSG mice (survival); type: in vivo
Method: In vivo efficacy of SIR targeting CD19. […] SIR constructs and Gluc-PAC-G07 control construct encoding non-secretory form of Guassia Luciferase. Approximately half the cells were selected with puromycin while the other half was expanded without puromycin selection. NSG mice (Jackson Lab) were sub-lethally irradiated at a dose of 175 cGy. Approximately 24 hours post irradiation (day 2), mice were injected with 2.5×10^4 RAJI cells via tail-vein. […] Control mice (n=5) received no T cells or uninfected T cells. Mice were given human IL2 (400 IU intraperitoneally) on alternate days till the death of all mice in control group.
Approximately half the cells were selected with puromycin while the other half was expanded without puromycin selection. NSG mice (Jackson Lab) were sub-lethally irradiated at a dose of 175 cGy. Approximately 24 hours post irradiation (day 2), mice were injected with 2.5×10^4 RAJI cells via tail-vein. […] Control mice (n=5) received no T cells or uninfected T cells. Mice were given human IL2 (400 IU intraperitoneally) on alternate days till the death of all mice in control group.
SIR construct. NSG mice (Jackson Lab) were sub-lethally irradiated at a dose of 175 cGy. Approximately 24 hours post irradiation (day 2), mice were injected with 2.5×10^4 RAJI cells via tail-vein. […] SIR encoding lentivirus. Control mice (n=5) were injected with 5 million uninfected T cells or given no T cells.
SIR constructs. […] SIR were included as controls. NSG mice (n=5) were sub-lethally irradiated at a dose of 175 cGy. 24 hours post irradiation (day 2), mice were injected with 2.5×10^4 RAJI cells via tail-vein. […] Mice were given human IL2 (400 IU i.p.) on alternate days till the death of all mice in control group.
Human peripheral blood T cells isolated using CD3 magnetic beads were infected with lentiviruses expressing the indicated SIR constructs targeting Lym1 and Lym2. On day 1, the NSG mice were sub-lethally irradiated at a dose of 175 cGy. 24 hours post irradiation (day 2), mice were injected with 25×10^3 Raji cells intravenously. On day 3, the mice were treated intravenously with 10 million indicated CAR-T cells. Beginning on day 4, mice were injected with human IL-2 i.p. at a dose of 400 IU/mice every alternate day after the injection CAR-T cells till the death of all mice in control group.

RAJI cells [2] = assay: GLuc cytotoxicity assay, RAJI-GLuc cells; type: cell-based, human
Method: (D) Assay for Cytotoxic Activity in vitro and in vivo: The uninfected T cells or those expressing a control vector or SIR are cocultured with the target cell lines expressing a non-secretory form of a luciferase (such as GLuc, NLuc, Turboluc 16 etc.) for 4-96 hours and induction of cell lysis examined by measuring the luciferase activity as described in PCT/US17/52344. Alternate methods for measurement of cytotoxic activity (e.g., ^51Cr release assay or LDH release assay) can be used as well. The activity of T cells expressing a SIR can be also assayed in vivo using appropriate xenograft models in immunodeficient mice.
Cell death assay. To measure cell death, a novel assay based on ectopic cytosolic expression of Gluc or NLuc was utilized as described in PCT/US17/52344 “A Non-Radioactive Cytotoxicity Assay”. The method involves expression of a reporter in a target cells in a manner so that it is preferentially retained within the healthy cells but is either released from dead and dying cells or whose activity can be preferentially measured in dead and dying cells. The preferred reporter for this assay are 1) non-secreted forms of luciferases from the copepods, such as Gaussia princeps, Pleuromamma abdominalis, Metridia pacifica, Metridia curticauda, Metridia asymmetrica, Metridia okhotensis, Metridia longa, Lucicutia ovaliformis, Heterorhabdus tanneri, and Pleuromamma scutullata 2) engineered luciferase reporters from deep sea shrimp, such as NanoLuc. The sequence of several such reporter vectors is provided in SEQ ID NO: 881 to SEQ ID NO: 887. The above vectors were used to generate retrovirus and lentiviruses which in turn were used to generate polyclonal population of several target cell lines stably expressing GLuc, NLuc, TurboLuc or MLuc7 following selection with appropriate antibiotics. Unless indicated otherwise, the target cells stably expressing the different luciferases (GLuc, Nluc, MLuc7 or TurboLuc16) were plated in triplicate in a 384 well plate in the media used for growing the target cells. Target cells which grow in suspension were generally plated at a concentration of 2-3×10^4 per well, while target cells which grow as adherent monolayers were plated at a concentration of 1-2×10^4 per well. Unless indicated otherwise, the target cells were cocultured with the genetically modified T cells (i.e. those expressing SIR or CAR) at an Effector:Target (E:T) ratio varying from 1:1 to 10:1 for 4 hours to 96 hours. In the case target cells grow as adherent cells (e.g., HeLa cells), they were allowed to attach to the bottom of the wells overnight before the T cells were added. T cells mediated induction of lysis of target cells was assayed by increase of luciferase activity as measured by BioTek synergy plate reader by directly injecting 0.5×CTZ assay buffer containing native coeloentrazine (Nanaolight).
CTZ assay. A 100× stock solution of native coelenterazine (CTZ; Nanolight, cat #303) was made by dissolving 1 mg of lyophilized CT powder in 1.1 ml of 100% Methanol supplemented with 30 μl of 6N HCl to avoid oxidation of CTZ with time. To make CTZ assay buffer, the 100× stock solution of CTZ was diluted to 0.5× concentration in PBS. Unless indicated otherwise, a total volume of 15 μl of the CTZ assay buffer (as prepared above) was added to each well of a 384-well white plate (Greiner, 384 well white plate cat #781075) containing cells expressing the non-secretory form of the luciferase in approximately 50-60 μl volume of medium and plates were read for luminescence in endpoint mode using BioTek synergyH4 plate reader. For 96 well plates, cells were plated in 200 μl of media and approximately 50 μl of 0.5×CTZ assay buffer was added. Unless indicated otherwise, the 0.5×CTZ assay buffer was used for assaying the activity of GLuc, TurboLuc16, and MLuc7. The CTZ assay buffer (diluted to 0.125× concentration) was also used for measurement of NLuc activity in some experiments (see below).

[3] = FIG. 17: 2.5×10^4 RAJI cells, 5 million T cells on day 3, human IL2 (400 IU i.p.) on alternate days

## CD8SP-CD19Bu12-vL-V5-[TCRb-S57C-opt1]-F-P2A-SP-CD19Bu12-vH-Myc-[TCRa-T48C-opt1]-F-F2A-PAC [SEQ ID NO:1021]
RAJI cells [1]; [3]
  Median Survival: 51 days
RAJI cells [2]; E:T 1:1, 96 hours
  lysis of target cells by increase of GLuc activity (in words): increase in GLuc activity
RAJI cells [2]; E:T 10:1, 4 hours
  lysis of target cells by increase of GLuc activity (in words): increase in GLuc activity
  mean Gluc values: 2547

## CD8SP-FMC63-vL-V5-[TCRb-S57C-opt1]-F-P2A-SP-FMC63-vH-Myc-[TCRa-T48C-opt1]-F-F2A-PAC [SEQ ID NO:900]
RAJI cells [1]; [3]
  Median Survival: 28.0 days
RAJI cells [1]; NSG mice, 2.5×10^4 RAJI cells via tail-vein, 5 million T cells on day 3, Table 13
  Median Survival: 27 days
RAJI cells [1]; experiment of Table 13
  survival (in words): conferred survival advantage
RAJI cells [2]; E:T 1:1, 96 hours
  lysis of target cells by increase of GLuc activity (in words): increase in GLuc activity
RAJI cells [2]; E:T 10:1, 4 hours
  lysis of target cells by increase of GLuc activity (in words): increase in GLuc activity; also recorded: induced effective target cell lysis; also recorded: Modest cytotoxicity
  mean Gluc values: 3042
